{"source": "patent US20120135069A1", "about": "“NANONIZED TESTOSTERON FORMULATIONS FOR IMPROVED BIOAVAILABILITY” (PHARMASOL GMBH, priority 2009, published 2012)", "origin": "cited, not measured here", "key": {"[1]": {"conditions": "in vivo"}, "[2]": {"conditions": "taken orally"}}, "data": [{"compound": "C[C@]12CCC(=O)C=C1CC[C@@H]1[C@@H]2CC[C@@]2(C)[C@H]1CC[C@]2(C)O", "note": "[methyltestosterone]", "values": [{"measurement": "liver toxicity", "setting": "[1]", "value": "very liver toxic"}]}, {"compound": "C[C@]12CC[C@H]3[C@@H](CCC4=CC(=O)CC[C@@]43C)[C@@H]1CC[C@@H]2O", "note": "[testosterone]", "values": [{"measurement": "fraction of the drug immediately metabolised by liver enzymes (first pass effect)", "setting": "[2]", "value": "about 99%"}]}]}
